Data taken from ChEMBL document CHEMBL5230102, “Bicyclic polyprenylated acylphloroglucinols and their derivatives: structural modification, structure-activity relationship, biological activity and mechanism of action” (Eur J Med Chem, 2020).
In brackets after ≈: the same amount, converted by molar mass.

Columns and labels:
Staphylococcus aureus [1] = experiment: Antibacterial activity against methicillin resistant Staphylococcus aureus USA300; assay type: functional
SGC-7901 = experiment: Cytotoxicity against human SGC-7901 cells assessed as inhibition of cell growth; assay type: functional, cell-based
HCT-116 = experiment: Cytotoxicity against human HCT-116 cells assessed as inhibition of cell growth; assay type: functional, cell-based
HeLa = experiment: Cytotoxicity against human HeLa cells assessed as inhibition of cell growth; assay type: functional, cell-based
Staphylococcus aureus [2] = experiment: Antibacterial activity against Staphylococcus aureus; assay type: functional, organism-based
Plasmodium falciparum = experiment: Antimalarial activity against Plasmodium falciparum; assay type: functional, organism-based

SMILES | MIC (Staphylococcus aureus [1]) | IC50 (SGC-7901) | IC50 (HCT-116) | IC50 (HeLa) | also measured
C=CC[C@@]12C(=O)C(C(C)=O)=C(O)[C@@](Cc3ccccc3)(C[C@@H](CC=C(C)C)C1(C)C)C2=O | 1 µg/mL (≈ 2.3 µM) | – | – | – | –
CC(C)=CCC/C(C)=C/C[C@@H]1C[C@@]2(CC=C(C)C)C(=O)CC(=O)[C@](CC=C(C)C)(C2=O)C1(C)C | – | 6.89 µg/mL (≈ 14.8 µM) | 9.14 µg/mL (≈ 19.6 µM) | 9.69 µg/mL (≈ 20.8 µM) | –
CC(C)=CCC(=O)C1=C(O)[C@@]2(C)C[C@@H](CC=C(C)C)C(C)(C)[C@@](CC=C(C)C)(C1=O)C2=O | 4 µg/mL (≈ 9.08 µM) | – | – | – | –
CC(=O)C1=C(O)[C@@]2(CC=C(C)C)C[C@@H](CC=C(C)C)C(C)(C)[C@@](CC=C(C)C)(C1=O)C2=O | 1 µg/mL (≈ 2.27 µM) | – | – | – | –
C=CC[C@@]12C[C@@H](CC=C(C)C)C(C)(C)[C@@](CC=C)(C(=O)C(C(C)=O)=C1O)C2=O | 2 µg/mL (≈ 5.2 µM) | – | – | – | –
CC(C)=CCC/C(C)=C/C[C@@H]1C[C@]2(C/C=C(\C)CCC=C(C)C)C(=O)[C@@](CC=C(C)C)(C(=O)C(C(=O)c3ccc(O)c(O)c3)=C2O)C1(C)C | – | 4.05 µg/mL (≈ 6.04 µM) | 4.92 µg/mL (≈ 7.33 µM) | 8.09 µg/mL (≈ 12.1 µM) | –
C=CC[C@@]12C[C@@H](CC=C(C)C)C(C)(C)[C@@](CC=C)(C(=O)C(C(=O)C(C)C)=C1O)C2=O | 2 µg/mL (≈ 4.85 µM) | – | – | – | –
CC(C)=CCC/C(C)=C/C[C@@H]1C[C@]2(CC=C(C)C)C(=O)[C@@](CC=C(C)C)(C(=O)C(C(=O)c3ccc(O)c(O)c3)=C2O)C1(C)C [OBLONGIFOLIN B] | – | > 20 µg/mL | > 20 µg/mL | > 20 µg/mL | –
CC(C)=CC[C@@]12C[C@@H](Cc3ccccc3)C(C)(C)[C@@](CC=C(C)C)(C(=O)C(C(=O)c3ccccc3)=C1O)C2=O | 4 µg/mL (≈ 7.62 µM) | – | – | – | –
CC(C)=CC[C@@H]1C[C@@]2(Cc3ccccc3)C(=O)[C@](CC=C(C)C)(C(=O)C(C(=O)c3ccccc3)=C2O)C1(C)C | 1 µg/mL (≈ 1.91 µM) | – | – | – | –
C=CC[C@@]12C(=O)C(C(=O)C(C)C)=C(O)[C@@](Cc3ccccc3)(C[C@@H](CC=C(C)C)C1(C)C)C2=O | 1 µg/mL (≈ 2.16 µM) | – | – | – | –
CC(C)=CCC/C(C)=C/C[C@]12C[C@@H](CC=C(C)C)C(C)(C)[C@](C/C=C(\C)CCC=C(C)C)(C(=O)CC1=O)C2=O | – | > 20 µg/mL | > 20 µg/mL | > 20 µg/mL | –
CC(C)=CCC1=C(O)[C@@]2(C(=O)c3ccccc3)C(=O)[C@](CC=C(C)C)(C[C@H](CC=C(C)C)C2(C)C)C1=O | – | – | – | – | IC50 (Staphylococcus aureus [2]): < 1000 nM; IC50 (Plasmodium falciparum): < 1000 nM
CC(C)=CC[C@@H]1C[C@@]2(CC=C(C)C)C(=O)[C@](CC=C(C)C)(C(=O)C(C(=O)c3ccccc3)=C2O)C1(C)C [CLUSIANONE] | 1 µg/mL (≈ 1.99 µM) | – | – | – | –
C=C(C)[C@H](CC=C(C)C)C[C@]12C[C@H](CC=C(C)C)C(C)(C)[C@](CC=C(C)C)(C(=O)C(C(=O)c3ccc(O)c(O)c3)=C1O)C2=O | 7 µg/mL (≈ 11.6 µM) | – | – | – | –
CC(C)=CCC/C(C)=C/C[C@]12C[C@@H](CC=C(C)C)C(C)(C)[C@](C/C=C(\C)CCC=C(C)C)(C(=O)C(C(=O)c3ccc(O)c(O)c3)=C1O)C2=O [GUTTIFERONE O] | – | > 20 µg/mL | > 20 µg/mL | > 20 µg/mL | –
CC(C)=CC[C@@H]1C[C@]2(CC=C(C)C)C(=O)[C@@](CC=C(C)C)(C(=O)C(C(=O)c3ccccc3)=C2O)C1(C)C | – | 12 µg/mL (≈ 23.8 µM) | 6.87 µg/mL (≈ 13.7 µM) | 12 µg/mL (≈ 23.8 µM) | –

SMILES | MIC (Staphylococcus aureus [1]) | IC50 (SGC-7901) | IC50 (HCT-116) | IC50 (HeLa) | also measured
CC(C)=CC[C@@]12C[C@@H](Cc3ccccc3)C(C)(C)[C@@](C)(C(=O)C(C(=O)c3ccccc3)=C1O)C2=O | > 30 µg/mL | – | – | – | –
CC(C)=CC[C@@H]1C[C@]23C[C@@H](CC=C(C)C)C(C)(C)[C@](CC=C(C)C)(C(=O)C(C(=O)c4ccc(O)c(O)c4)=C2OC1(C)C)C3=O | > 30 µg/mL | – | – | – | –
CC(=O)C1=C(O)[C@@]2(Cc3ccccc3)C[C@@H](CC=C(C)C)C(C)(C)[C@@](CC=C(C)C)(C1=O)C2=O | 0.5 µg/mL (≈ 1.08 µM) | – | – | – | –
CC(C)=CCC/C(C)=C/C[C@@H]1C[C@@]2(C/C=C(\C)CCC=C(C)C)C(=O)CC(=O)[C@](CC=C(C)C)(C2=O)C1(C)C | – | > 20 µg/mL | > 20 µg/mL | > 20 µg/mL | –
CC(C)=CCC(=O)C1=C(O)[C@@]2(Cc3ccccc3)C[C@@H](CC=C(C)C)C(C)(C)[C@@](CC=C(C)C)(C1=O)C2=O | 2 µg/mL (≈ 3.87 µM) | – | – | – | –
CC(C)=CC[C@H]1C[C@@]2(CC=C(C)C)C(=O)c3c(oc4c(O)c(O)ccc4c3=O)[C@](CC=C(C)C)(C2=O)C1(C)C | – | 4.69 µg/mL (≈ 8.8 µM) | 2.44 µg/mL (≈ 4.58 µM) | 4.69 µg/mL (≈ 8.8 µM) | –
CC1(C)[C@H](Cc2ccccc2)C[C@@]2(Cc3ccccc3)C(=O)[C@]1(C)C(=O)C(C(=O)c1ccccc1)=C2O | > 30 µg/mL | – | – | – | –
CC(C)=CC[C@H]1C[C@@]2(CC=C(C)C)C(=O)c3c(oc4cc(O)c(O)cc4c3=O)[C@](CC=C(C)C)(C2=O)C1(C)C | – | 7.65 µg/mL (≈ 14.4 µM) | 5.96 µg/mL (≈ 11.2 µM) | 7.65 µg/mL (≈ 14.4 µM) | –
CC(C)=CCC/C(C)=C/C[C@]12C(=O)CC(=O)[C@](CC=C(C)C)(C[C@@H](CC=C(C)C)C1(C)C)C2=O | – | 8.5 µg/mL (≈ 18.2 µM) | 10.9 µg/mL (≈ 23.4 µM) | 11.7 µg/mL (≈ 25 µM) | –
CC(C)=CCC/C(C)=C/C[C@]12C[C@@H](CC=C(C)C)C(C)(C)[C@](CC=C(C)C)(C(=O)C(C(=O)c3ccc(O)c(O)c3)=C1O)C2=O | – | 5.48 µg/mL (≈ 9.09 µM) | 8.6 µg/mL (≈ 14.3 µM) | 11.7 µg/mL (≈ 19.4 µM) | –
C=CC[C@@]12C(=O)C(C(=O)c3ccccc3)=C(O)[C@@](Cc3ccccc3)(C[C@@H](CC=C(C)C)C1(C)C)C2=O | 4 µg/mL (≈ 8.05 µM) | – | – | – | –
CC(C)=CC[C@@H]1C[C@]2(CC=C(C)C)C(=O)C(C(=O)c3ccccc3)=C3O[C@H](C(C)(C)O)C[C@]3(C2=O)C1(C)C | 4 µg/mL (≈ 7.71 µM) | – | – | – | –
CC(C)=CC[C@@]12C(=O)C(C(=O)c3ccccc3)=C(O)[C@@](Cc3ccccc3)(C[C@@H](Cc3ccccc3)C1(C)C)C2=O | 4 µg/mL (≈ 7.32 µM) | – | – | – | –
CC(C)=CCC/C(C)=C/C[C@]12C[C@@H](CC=C(C)C)C(C)(C)[C@](CC=C(C)C)(C(=O)CC1=O)C2=O | – | 5.6 µg/mL (≈ 12 µM) | 6.46 µg/mL (≈ 13.8 µM) | 6.64 µg/mL (≈ 14.2 µM) | –
CC(C)=CC[C@@H]1C[C@@]2(CC=C(C)C)C(=O)[C@](C)(C(=O)C(C(=O)c3ccccc3)=C2O)C1(C)C | > 30 µg/mL | – | – | – | –
CC(C)=CC[C@@H]1C[C@@]2(Cc3ccccc3)C(=O)[C@](C)(C(=O)C(C(=O)c3ccccc3)=C2O)C1(C)C | > 30 µg/mL | – | – | – | –
CC(C)=CC[C@@H]1C[C@@]2(CC=C(C)C)C(=O)[C@](CC=C(C)C)(C(=O)C(C(=O)C(C)C)=C2O)C1(C)C | 2 µg/mL (≈ 4.27 µM) | – | – | – | –
